Measurements published in PMC6801448, “The Antioxidant and Antiproliferative Activities of 1,2,3-Triazolyl-L-Ascorbic Acid Derivatives” (International Journal of Molecular Sciences, 2019).
Entries after “also recorded” stand apart in the source; their conditions may differ.

Key:
NOS2 = experiment: Western blot of NOS2 in MCF-7 cells; format: cell-based, Human; details: MCF-7, 6.72 µM, 48 h
Experimental: Protein lysates were prepared using RIPA buffer containing cocktail of protease and phosphatase inhibitors (Roche, Basel, Switzerland). Amounts of 50 μg of proteins were resolved on 12% SDS polyacrylamide gels using the Mini-protean cell (Bio-Rad, Hercules, CA, USA). The membranes were incubated with primary antibodies raised against hydroxy-HIF-1α (Pro564) (HIF-1α, 1:1000, rabbit mAb, Cell Signaling Technology, NL) and NOS2 (1:500, mouse mAb, SantaCruzBiotechnology, Dallas, TX, USA) at 4 °C overnight. A secondary antibody linked to anti-mouse (1:1000, Dako, Santa Clara, CA, USA) was used. The signal was visualized by the Western Lightening Chemiluminescence Reagent Plus Kit (Perkin Elmer, Massachusetts, MA, USA) on the ImageQuant LAS500 (GE Healthcare, Chicago, IL, USA), and as a loading control, α-tubulin (1:1000, mouse mAb, Sigma, Sigma Aldrich, Darmstadt, Germany) was used. The signal intensities of bands were normalized and compared in Quantity One software (Bio-Rad, Hercules, CA, USA). Differences in protein relative expression status obtained by western blot analysis were analyzed by two-tailed, paired t-tests (p < 0.05) in the Statistica software package (v.12.0).

[1] = system: tested cell lines (A549, CFPAC-1, HCT-116, HeLa, HepG2, MCF-7, SW620, WI-38, HFF-1); experiment: MTT proliferation assay, whole tested cell panel; format: cell-based, Human; details: 0.01 µM to 100 µM, 72 h
Experimental: The C-6 substituted 1,2,3-triazole derivatives of L-ASA within the C5-OH group ([…], 4i, 4k−4t, and 4v) and with the C4=C5 double bond (7c−7g and 7i−7q) were evaluated against seven malignant tumor cell lines: lung adenocarcinoma (A549), ductal pancreatic adenocarcinoma (CFPAC-1), colorectal carcinoma (HCT-116), cervical carcinoma (HeLa), hepatocellular carcinoma (HepG2), breast adenocarcinoma (MCF-7), colorectal adenocarcinoma, and metastatic (SW620); as well as normal cell lines: lung fibroblasts (WI-38) and foreskin fibroblasts (HFF-1) (Table 3, Table S1, Supplementary Information). L-ASA was used as a positive control, and carboxyamidotriazole, a known antiproliferative agent that inhibits tumor cell growth, invasion, and metastasis, and 5-fluorouracil (5-FU), were used as reference compounds.
Human tumor cell lines HeLa (cervical carcinoma), SW620 (colorectal adenocarcinoma, metastatic), A549 (lung adenocarcinoma), MCF−7 (breast adenocarcinoma), CFPAC-1 (pancreatic adenocarcinoma, metastatic), HCT-116 (colorectal carcinoma), and HepG2 (hepatocellular carcinoma), and normal cell lines HFF-1 (foreskin fibroblasts) and WI-38 (immortalized human lung fibroblast), were from the US American Type Culture Collection (ATCC, Manassas, VA, USA). Cells were cultured in a liquid nutrient medium (Dulbecco’s Modified Eagle Medium, LONZA, Basel, Switzerland) supplemented with 10% fetal bovine serum (FBS, Gibco, Grand Island, NY, USA), 2 mM L-glutamine (GIBCO, Grand Island, NY, USA), 100 μg/mL penicillin, and 100 μg/mL streptomycin (LONZA, Basel, Switzerland), in an incubator (NÜVE, Ankara, Turkey), at a humid atmosphere with 5% CO2 at 37 °C. Trypsin/EDTA Solution (Lonza, Basel, Switzerland), was used for cell passaging and cell detachment.
Adherent cells were seeded on 96 well microtiter plates (Falcon, New York, NY, USA) at a seeding density of 5000 cells per well, added in 150 μL of cell suspension in a nutrient medium. 24 h after seeding, cells were treated with compound 4b–4g, 4i, 4k–4t, 4v, 7c–7g, and 7i–7q dilutions in the range of 0.01 μM to 100 μM. L-ascoric acid (Sigma Aldrich, Darmstadt, Germany) and Carboxyamidotriazole (Sigma Aldrich, Darmstadt, Germany) were used as control compounds. Incubation of the cells with the compounds were performed for 72 h in a 5% CO2, in humid atmosphere at 37 °C. After incubation, nutrient medium was removed and 40 μL of the MTT reagent ([…]-2,5-diphenyltetrazole bromide (Invitrogen, Carlsbad, CA, USA) was added to each well. 3 h after incubation, 160 μL of DMSO (VWR CHEMICALS, Radnor, PA, USA) were added to each well to dissolve the crystals of purple formazane. The absorbance was measured at 570 nm (TECAN SUNRISE Microtiter plate reader (Männedorf, Switzerland). The experimentally measured optical densities (OD) were converted to the PG (percentage of growth), using the formulas according to the protocol assumed by NIH (National Institute of Health). The IC50 values (concentration causing 50% cell growth inhibition) for each compound were calculated by regression analysis of the survival count curve of the concentrations of the tested compounds. The results were processed in Excel 2010 (Microsoft, Redmond, WA, USA).

SMILES: O=C1O[C@H]([C@@H](O)Cn2cc(-c3ccc(Br)cc3)nn2)C(O)=C1O [Compound 4e, 6-[4-(4-bromophenyl)-1,2,3-triazol-1-yl]-6-deoxy-L-ascorbic acid]
- NOS2 expression (NOS2): decreased expression; also recorded: somewhat decreased

SMILES: O=C1O[C@H]([C@@H](O)CO)C(O)=C1O [L-ASA, L-ascorbic acid]
- antiproliferative / cytotoxic effect on the tested cell lines (in words) [1]: no effects on the cell growth
